Experimental data: US11401262B2, “Dimeric contrast agents” (BRACCO IMAGING S.P.A., priority 2015, dated 2022)

Assay: Relaxometric properties: longitudinal relaxivity r1p measurement
Type: physicochemical
Details: per mM Gd; for r1p at 0.47 T 37° C., human plasma / r1p at 0.47 T 37° C., saline: 0.47 T (20 MHz); for r1p at 0.47 T 37° C., saline / r1p at 1.41 T 37° C., saline: physiologic solution; for r1p at 1.41 T 37° C., human plasma / r1p at 1.41 T 37° C., saline: 1.41 T (60 MHz)
Procedure: The relaxometric properties of some representative complex compounds according to the invention have been determined at different magnetic field strengths, e.g. including 0.47 and 1.41 T, at 37° C. and in different media (physiologic solution and human plasma) and compared with relaxivity values measured, at the same conditions, for some Gd-Complex of the market having an analogous cyclic coordination cage.
The longitudinal water proton relaxation rate (R1=1/T1) was measured at 0.47 T with a Minispec MQ-20 spectrometer (Bruker Biospin, Germany) operating at a proton Larmor frequency of 20 MHz; MR experiments at 1.41 T were performed using a Minispec MQ-60 spectrometer (Bruker Biospin, Germany) operating at a proton Larmor frequency of 60 MHz.
All test articles were used as supplied and diluted in the selected medium (physiologic solution or human plasma) by weighting the required amount of paramagnetic chelated complex to get a 5 or 10 mM starting solution.
Five different concentration samples (0.1, 0.25, 0.5, 0.75 and 1 mM) for each medium have been prepared by further dilution of the starting 5 or 10 mM solution.
Relaxivity measurements were performed at 0.47 T and 1.41 T at a preset temperature sample of 37° C., kept constant by means of a thermostatic bath connected to the sample holder of the spectrometer. The five sample solutions have been preliminary pre-heated at 37° C. in an external thermostatic bath and then left 10 minutes inside the internal bath to assure the stabilization of the temperature. Longitudinal relaxation time T1 was measured by means of a standard inversion recovery sequence, where the inversion time (TI) was varied from 10 ms to at least 5 times T1 in 15 steps. Statistical analysis (mono-exponential fitting for T1 measurement, linear fitting for the evaluation of longitudinal relaxivity) was performed by Mathematica® (Wolfram, USA). Errors on the estimated parameters were evaluated by the fitting procedure.

r1p at 0.47 T 37° C., human plasma	r1p at 0.47 T 37° C., saline	r1p at 1.41 T 37° C., human plasma	r1p at 1.41 T 37° C., saline	Compound
9.7 mM⁻¹ s⁻¹	8.3 mM⁻¹ s⁻¹	9.2 mM⁻¹ s⁻¹	8.5 mM⁻¹ s⁻¹	O=C(O)CN1CCN(CC(=O)O)CCN(CC(O)CN(CC(=O)O)CC(O)CN2CCN(CC(=O)O)CCN(CC(=O)O)CCN(CC(=O)O)CC2)CCN(CC(=O)O)CC1 (stereo not shown)
11.5 mM⁻¹ s⁻¹	9.3 mM⁻¹ s⁻¹	10.8 mM⁻¹ s⁻¹	9.4 mM⁻¹ s⁻¹	O=C(O)CN1CCN(CC(=O)O)CCN(CC(O)CN(CC(O)CN2CCN(CC(=O)O)CCN(CC(=O)O)CCN(CC(=O)O)CC2)CC(O)C(O)C(O)C(O)CO)CCN(CC(=O)O)CC1 (stereo not shown)
10.6 mM⁻¹ s⁻¹	7.3 mM⁻¹ s⁻¹	10.2 mM⁻¹ s⁻¹	7.5 mM⁻¹ s⁻¹	O=C(O)CN1CCN(CC(=O)O)CCN(CC(O)CN(CCN(CC(=O)O)CC(O)CN2CCN(CC(=O)O)CCN(CC(=O)O)CCN(CC(=O)O)CC2)CC(=O)O)CCN(CC(=O)O)CC1 (stereo not shown)
12.0 mM⁻¹ s⁻¹	9.0 mM⁻¹ s⁻¹	11.3 mM⁻¹ s⁻¹	9.3 mM⁻¹ s⁻¹	O=C(O)CN1CCN(CC(=O)O)CCN(CC(O)CN(CC(O)CN2CCN(CC(=O)O)CCN(CC(=O)O)CCN(CC(=O)O)CC2)CP(=O)(O)O)CCN(CC(=O)O)CC1 (stereo not shown) [Chelate Complex 2]
